molecular target: T1, IRAK4 (Homo sapiens, UniProt Q9NWZ3); assay: not given; assay type: cell-based; set-up: endogenous in cells; host or cells: OCI-LY3; conditions: read-out: OCI-LY3 DC50
T1 sequence (Q9NWZ3 1-460): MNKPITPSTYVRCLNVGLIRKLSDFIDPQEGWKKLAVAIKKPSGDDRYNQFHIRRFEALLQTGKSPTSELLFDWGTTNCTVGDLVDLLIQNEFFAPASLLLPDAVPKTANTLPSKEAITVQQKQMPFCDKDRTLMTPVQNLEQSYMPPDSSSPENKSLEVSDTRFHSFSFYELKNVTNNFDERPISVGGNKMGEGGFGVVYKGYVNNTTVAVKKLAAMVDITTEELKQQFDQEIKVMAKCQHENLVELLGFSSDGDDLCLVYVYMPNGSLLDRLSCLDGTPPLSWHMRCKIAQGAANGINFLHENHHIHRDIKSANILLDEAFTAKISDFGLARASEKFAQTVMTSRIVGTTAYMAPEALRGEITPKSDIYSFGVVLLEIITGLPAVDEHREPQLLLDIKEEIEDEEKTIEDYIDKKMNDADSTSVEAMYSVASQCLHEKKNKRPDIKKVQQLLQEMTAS

Row | DC50 [nM] | Structure (SMILES)
1 | 0.4 | Cn1c(=O)n(C2CCC(=O)NC2=O)c2cccc(C#CCOCCCN3CCC4(CC3)CC(n3cc(NC(=O)c5cnn6ccc(N7C[C@H]8C[C@@H]7CO8)nc56)c(C(F)F)n3)C4)c21 (some centres unmarked) [Example 2]
2 | 8 | Cn1c(=O)n(C2CCC(=O)NC2=O)c2cccc(C#CCN3CCC(CN4CCC5(CC4)CC(n4cc(NC(=O)c6cnn7ccc(N8C[C@H]9C[C@@H]8CO9)nc67)c(C(F)F)n4)C5)CC3)c21 (some centres unmarked) [Example 3]
3 | 5 | Cn1c(=O)n(C2CCC(=O)NC2=O)c2cccc(C#CCOCCCCN3CCC4(CC3)CC(n3cc(NC(=O)c5cnn6ccc(N7C[C@H]8C[C@@H]7CO8)nc56)c(C(F)F)n3)C4)c21 (some centres unmarked) [Example 4]

same assay, conditions: read-out: OCI-LY3 DC50; OCI-LY3 cells

Row | Structure (SMILES) | DC50 [nM]
4 | Cn1c(=O)n(C2CCC(=O)NC2=O)c2cccc(C#CCOCCN3CCC4(CC3)CC(n3cc(NC(=O)c5cnn6ccc(N7C[C@H]8C[C@@H]7CO8)nc56)c(C(F)F)n3)C4)c21 (some centres unmarked) [Example 1] | 0.4
5 | Cn1c(=O)n(C2CCC(=O)NC2=O)c2cccc(C#CCOCC(C)(C)C(=O)N3CCC4(CC3)CC(n3cc(NC(=O)c5cnn6ccc(N7C[C@H]8C[C@@H]7CO8)nc56)c(C(F)F)n3)C4)c21 (some centres unmarked) [Example 5] | 28

molecular target: T1, IRAK4; assay: Degradation of IRAK4 in SU-DHL-2 cells (flow cytometry); assay type: cell-based; set-up: The degradation level of IRAK4 protein in SU-DHL-2 cell line by the compounds was detected by flow cytometry; endogenous in cells; host or cells: SU-DHL-2; OCI-LY3; conditions: SU-DHL-2 cells, 24 hours incubation; read-out: SU-DHL-2 DC50
Description: The degradation level of IRAK4 protein in SU-DHL-2 cell line by the compounds was detected by flow cytometry.
Step 2: On day 1, the cells were seeded at a density of 2 × 10^5 cells per well in 100 µL in a 96-well plate. The compounds were dissolved in DMSO to a final concentration of 10 mM, and then diluted with culture medium at a 1:5 concentration gradient to prepare 10 concentrations. The diluted solutions were added to the cells to obtain a maximum final concentration of 2 µM. Wells containing cells treated with 0.1% DMSO served as the […] The cells were incubated at 37°C in a 5% CO2 incubator for 24 hours.
Step 3: After centrifugation, the cells were washed with FACS buffer. The cells were stained for viability discrimination using the LIVE/DEAD™ Fixable Blue Dead Cell Stain Kit, and surface staining of monocytes was performed with PE Mouse Anti-Human CD14, followed by incubation at 4°C for 30 minutes.
Step 4: After centrifugation, the cells were washed with FACS buffer. Fix buffer I, equal in volume to the cultured cells, was added, and the cells were fixed at 37°C for 10 minutes.
Step 5: After centrifugation, the cells were washed with FACS buffer. 150 µL of Perm III reagent was added, and the cells were incubated at 4°C for 30 minutes to permeabilize the membranes. After centrifugation, the cells were washed with FACS buffer.
Flow cytometry analysis was performed using a flow cytometer.
The flow cytometry data were analyzed using Flowjo software. Data presentation and DC50 (half-maximal degradation concentration) calculation were performed using Prism 8.0.2 (GraphPad).

Row | Structure (SMILES) | DC50 [nM]
6 | Cn1c(=O)n(C2CCC(=O)NC2=O)c2cccc(C#CCOC[C@H]3C[C@H]3CN3CCC4(CC3)CC(n3cc(NC(=O)c5cnn6ccc(N7C[C@H]8C[C@@H]7CO8)nc56)c(C(F)F)n3)C4)c21 (relative stereo) [Example 44] | 5.4
7 | Cn1c(=O)n(C2CCC(=O)NC2=O)c2cccc(C#CCOCCN3CCC4(CC3)CC(n3cc(NC(=O)c5cnn6ccc(N7C[C@H]8C[C@@H]7CO8)nc56)c(C(F)F)n3)C4)c21 (some centres unmarked) [Example 1] | 1.4
8 | Cn1c(=O)n(C2CCC(=O)NC2=O)c2cccc(C#CCOCCN3CCC4(CCC(n5cc(NC(=O)c6cnn7ccc(N8C[C@H]9C[C@@H]8CO9)nc67)c(C(F)F)n5)CC4)CC3)c21 (some centres unmarked) [Example 37] | 24
9 | Cn1c(=O)n(C2CCC(=O)NC2=O)c2cccc(C#CCOC3CC(CN4CCC5(CCC(n6cc(NC(=O)c7cnn8ccc(N9C[C@H]%10C[C@@H]9CO%10)nc78)c(C(F)F)n6)CC5)CC4)C3)c21 (some centres unmarked) [Example 40] | 33
10 | Cn1c(=O)n(C2CCC(=O)NC2=O)c2cccc(C#CCOC3CCC(CN4CCC5(CCC(n6cc(NC(=O)c7cnn8ccc(N9C[C@H]%10C[C@@H]9CO%10)nc78)c(C(F)F)n6)CC5)CC4)CC3)c21 (some centres unmarked) [Example 46] | 13

same assay, conditions: read-out: SU-DHL-2 DC50

Row | Structure (SMILES) | DC50 [nM]
11 | Cn1c(=O)n(C2CCC(=O)NC2=O)c2cccc(C#CC(C)(C)N3CCC(CN4CCC5(CC4)CC(n4cc(NC(=O)c6cnn7ccc(N8C[C@H]9C[C@@H]8CO9)nc67)c(C(F)F)n4)C5)CC3)c21 (some centres unmarked) [Example 34] | 21
12 | Cn1c(=O)n(C2CCC(=O)NC2=O)c2cccc(C#CCOC3CC(N4CCC5(CCC(n6cc(NC(=O)c7cnn8ccc(N9C[C@H]%10C[C@@H]9CO%10)nc78)c(C(F)F)n6)CC5)CC4)C3)c21 (some centres unmarked) [Example 38] | 68
13 | Cn1c(=O)n(C2CCC(=O)NC2=O)c2cccc(C#CCOC3CN(C(=O)N4CCC5(CCC(n6cc(NC(=O)c7cnn8ccc(N9C[C@H]%10C[C@@H]9CO%10)nc78)c(C(F)F)n6)CC5)CC4)C3)c21 (some centres unmarked) [Example 39] | 17
14 | Cn1c(=O)n(C2CCC(=O)NC2=O)c2cccc(C#CCOC3CCN(C(=O)N4CCC5(CCC(n6cc(NC(=O)c7cnn8ccc(N9C[C@H]%10C[C@@H]9CO%10)nc78)c(C(F)F)n6)CC5)CC4)CC3)c21 (some centres unmarked) [Example 43] | 61
15 | COc1cc2nn(C3CCC4(CC3)CCN(CC3CCN(c5ccc6c(c5)C(=O)N(C5CCC(=O)NC5=O)C6=O)CC3)CC4)cc2cc1C(=O)Nc1cnc2cccnn12 (centres unmarked) [Example 47] | 0.5
16 | COc1cc2nn(C3CCC4(CC3)CCN(CC3CCN(c5ccc6c(c5)C(=O)N(C5CCC(=O)NC5=O)C6=O)CC3)CC4)cc2cc1NC(=O)c1cnn2cccnc12 (centres unmarked) [Example 48] | 1
17 | Cn1c(=O)n(C2CCC(=O)NC2=O)c2cccc(C#CC(C)(C)N3CC(C(=O)N4CCC5(CC4)CC(n4cc(NC(=O)c6cnn7ccc(N8C[C@H]9C[C@@H]8CO9)nc67)c(C(F)F)n4)C5)C3)c21 (some centres unmarked) [Example 50] | 4
18 | Cn1c(=O)n(C2CCC(=O)NC2=O)c2cccc(C#CCOC34CCC(C(=O)N5CCC6(CC5)CC(n5cc(NC(=O)c7cnn8ccc(N9C[C@H]%10C[C@@H]9CO%10)nc78)c(C(F)F)n5)C6)(CC3)CC4)c21 (some centres unmarked) [Example 51] | 7
19 | Cn1c(=O)n(C2CCC(=O)NC2=O)c2cccc(C#CC(C)(C)N3CC[C@@H](C(=O)N4CCC5(CC4)CC(n4cc(NC(=O)c6cnn7ccc(N8C[C@H]9C[C@@H]8CO9)nc67)c(C(F)F)n4)C5)C3)c21 (some centres unmarked) [Example 54] | 17
20 | Cn1c(=O)n(C2CCC(=O)NC2=O)c2cccc(C#CC(C)(C)N3CC[C@H](C(=O)N4CCC5(CC4)CC(n4cc(NC(=O)c6cnn7ccc(N8C[C@H]9C[C@@H]8CO9)nc67)c(C(F)F)n4)C5)C3)c21 (some centres unmarked) [Example 55] | 7
21 | COc1cc2nn(C3CCC4(CC3)CCN(C3CC(OCC#Cc5cccc6c5n(C)c(=O)n6C5CCC(=O)NC5=O)C3)CC4)cc2cc1C(=O)Nc1cnc2cccnn12 (centres unmarked) [Example 64] | 1
22 | COc1cc2nn(C3CC4(CCN(CC5CC(OCC#Cc6cccc7c6n(C)c(=O)n7C6CCC(=O)NC6=O)C5)CC4)C3)cc2cc1C(=O)Nc1cnc2cccnn12 (centres unmarked) [Example 65] | 2.8
23 | COc1cc2nn(C3CCC4(CC3)CCN(CC3CCN(c5ccc6c(c5)C(=O)N(C5CCC(=O)NC5=O)C6=O)CC3)CC4)cc2cc1NC(=O)c1cnc2cccnn12 (centres unmarked) [Example 67] | 45
24 | Cn1c(=O)n(C2CCC(=O)NC2=O)c2cccc(C#CCOC3CCN(CC4CCC5(CC4)CCC(n4cc(NC(=O)c6cnn7ccc(N8C[C@H]9C[C@@H]8CO9)nc67)c(C(F)F)n4)CC5)CC3)c21 (some centres unmarked) [Example 68] | 24
25 | Cn1c(=O)n(C2CCC(=O)NC2=O)c2cccc(C#CCO[C@H]3CC[C@H](C(=O)N4CCC5(CC4)CC(n4cc(NC(=O)c6cnn7ccc(N8C[C@H]9C[C@@H]8CO9)nc67)c(C(F)F)n4)C5)CC3)c21 (some centres unmarked) [Example 71] | 5
26 | Cn1c(=O)n(C2CCC(=O)NC2=O)c2cccc(C#CCO[C@H]3CC[C@@H](C(=O)N4CCC5(CC4)CC(n4cc(NC(=O)c6cnn7ccc(N8C[C@H]9C[C@@H]8CO9)nc67)c(C(F)F)n4)C5)CC3)c21 (some centres unmarked) [Example 72] | 4

The next lines start with the values.

Row | DC50 [nM] | Structure (SMILES)
27 | 1.1 | Cn1c(=O)n(C2CCC(=O)NC2=O)c2cccc(C#CCOCCCN3CCC4(CC3)CC(n3cc(NC(=O)c5cnn6ccc(N7C[C@H]8C[C@@H]7CO8)nc56)c(C(F)F)n3)C4)c21 (some centres unmarked) [Example 2]
28 | 11 | Cn1c(=O)n(C2CCC(=O)NC2=O)c2cccc(C#CCN3CCC(CN4CCC5(CC4)CC(n4cc(NC(=O)c6cnn7ccc(N8C[C@H]9C[C@@H]8CO9)nc67)c(C(F)F)n4)C5)CC3)c21 (some centres unmarked) [Example 3]
29 | 8 | Cn1c(=O)n(C2CCC(=O)NC2=O)c2cccc(C#CCOCCCCN3CCC4(CC3)CC(n3cc(NC(=O)c5cnn6ccc(N7C[C@H]8C[C@@H]7CO8)nc56)c(C(F)F)n3)C4)c21 (some centres unmarked) [Example 4]
30 | 6.5 | Cn1c(=O)n(C2CCC(=O)NC2=O)c2cccc(C#CCOC3CCC(N4CCC5(CC4)CC(n4cc(NC(=O)c6cnn7ccc(N8C[C@H]9C[C@@H]8CO9)nc67)c(C(F)F)n4)C5)CC3)c21 (some centres unmarked) [Example 33]
31 | 5 | Cn1c(=O)n(C2CCC(=O)NC2=O)c2cccc(C#CCC3CCC(N4CCC5(CC4)CC(n4cc(NC(=O)c6cnn7ccc(N8C[C@H]9C[C@@H]8CO9)nc67)c(C(F)F)n4)C5)CC3)c21 (some centres unmarked) [Example 35]
32 | 22 | Cn1c(=O)n(C2CCC(=O)NC2=O)c2cccc(C#CCOc3ccc(CN4CCC5(CC4)CC(n4cc(NC(=O)c6cnn7ccc(N8C[C@H]9C[C@@H]8CO9)nc67)c(C(F)F)n4)C5)cc3)c21 (some centres unmarked) [Example 57]
33 | 5 | Cn1c(=O)n(C2CCC(=O)NC2=O)c2cccc(C#CCN3CC(C(=O)N4CCC5(CC4)CC(n4cc(NC(=O)c6cnn7ccc(N8C[C@H]9C[C@@H]8CO9)nc67)c(C(F)F)n4)C5)C3)c21 (some centres unmarked) [Example 58]
34 | 3 | Cn1c(=O)n(C2CCC(=O)NC2=O)c2cccc(C#CCN3CC[C@H](C(=O)N4CCC5(CC4)CC(n4cc(NC(=O)c6cnn7ccc(N8C[C@H]9C[C@@H]8CO9)nc67)c(C(F)F)n4)C5)C3)c21 (some centres unmarked) [Example 59]
35 | 4 | Cn1c(=O)n(C2CCC(=O)NC2=O)c2cccc(C#CCOC3CCN(CC4CCC5(CC4)CC(n4cc(NC(=O)c6cnn7ccc(N8C[C@H]9C[C@@H]8CO9)nc67)c(C(F)F)n4)C5)CC3)c21 (some centres unmarked) [Example 61]
36 | 1.2 | Cn1c(=O)n(C2CCC(=O)NC2=O)c2cccc(C#CCN3CCC(CN4CCC5(CC4)CC(n4cc(NC(=O)c6cnn7ccc(N8C[C@H]9C[C@@H]8CO9)nc67)c(C(F)F)n4)C5)CC3=O)c21 (some centres unmarked) [Example 62]
37 | 16 | Cn1c(=O)n(C2CCC(=O)NC2=O)c2cccc(C#CC(C)(C)C(=O)N3CCC4(CC3)CC(n3cc(NC(=O)c5cnn6ccc(N7C[C@H]8C[C@@H]7CO8)nc56)c(C(F)F)n3)C4)c21 (some centres unmarked) [Example 70]

same assay, conditions: read-out: SU-DHL-2 DC50; SU-DHL-2 cells, 24 hours incubation

Row | Structure (SMILES) | DC50 [nM]
38 | Cn1c(=O)n(C2CCC(=O)NC2=O)c2cccc(C#CCOCC(C)(C)C(=O)N3CCC4(CC3)CC(n3cc(NC(=O)c5cnn6ccc(N7C[C@H]8C[C@@H]7CO8)nc56)c(C(F)F)n3)C4)c21 (some centres unmarked) [Example 5] | 27
